Assay results reported in patent US20220168315A1, “COMPOUNDS AND THERAPEUTIC USES THEREOF” (priority 2019, published 2022).

Biological target: T1, PIKfyve (Homo sapiens, UniProt Q9Y2I7)
T1 construct: T7 phage fusion (kinase-tagged phage) or DNA tag for qPCR; made in house; host or cells: E. coli BL21-derived host (T7 phage) for most kinases, HEK-293 for the rest
Test: Kinase binding assay (kinase-tagged T7 phage, affinity beads, qPCR readout), Kd determination
Details: 11-point 3-fold dilution series
Procedure: Kinase assays. For most assays, kinase-tagged T7 phage strains were prepared in an E. coli host derived from the BL21 strain. E. coli were grown to log-phase and infected with T7 phage and incubated with shaking at 32° C. until lysis. The lysates were centrifuged and filtered to remove cell debris. The remaining kinases were produced in HEK-293 cells and subsequently tagged with DNA for qPCR detection. Streptavidin-coated magnetic beads were treated with biotinylated small molecule ligands for 30 minutes at room temperature to generate affinity resins for kinase assays. The liganded beads were blocked with excess biotin and washed with blocking buffer (SeaBlock (Pierce), 1% BSA, 0.05% Tween 20, 1 mM DTT) to remove unbound ligand and to reduce non-specific binding. Binding reactions were assembled by combining kinases, liganded affinity beads, and test compounds in 1× binding buffer (20% SeaBlock, 0.17×PBS, 0.05% Tween 20, 6 mM DTT). Test compounds were prepared as 111× stocks in 100% DMSO. Kds were determined using an 11-point 3-fold compound dilution series with three DMSO control points. All compounds for Kd measurements are distributed by acoustic transfer (non-contact dispensing) in 100% DMSO. The compounds were then diluted directly into the assays such that the final concentration of DMSO was 0.9%. All reactions performed in polypropylene 384-well plate. Each was a final volume of 0.02 ml. The assay plates were incubated at room temperature with shaking for 1 hour and the affinity beads were washed with wash buffer (1×PBS, 0.05% Tween 20). The beads were then re-suspended in elution buffer (1×PBS, 0.05% Tween 20, 0.5 μM non-biotinylated affinity ligand) and incubated at room temperature with shaking for 30 minutes. The kinase concentration in the eluates was measured by qPCR.
An 11-point 3-fold serial dilution of each test compound was prepared in 100% DMSO at 100× final test concentration and subsequently diluted to 1× in the assay (final DMSO concentration=1%). Most Kds were determined using a compound top concentration=30,000 nM. If the initial Kd determined was <0.5 nM (the lowest concentration tested), the measurement was repeated with a serial dilution starting at a lower top concentration.

T1 sequence (Q9Y2I7 whole entry, the tested form may be a part): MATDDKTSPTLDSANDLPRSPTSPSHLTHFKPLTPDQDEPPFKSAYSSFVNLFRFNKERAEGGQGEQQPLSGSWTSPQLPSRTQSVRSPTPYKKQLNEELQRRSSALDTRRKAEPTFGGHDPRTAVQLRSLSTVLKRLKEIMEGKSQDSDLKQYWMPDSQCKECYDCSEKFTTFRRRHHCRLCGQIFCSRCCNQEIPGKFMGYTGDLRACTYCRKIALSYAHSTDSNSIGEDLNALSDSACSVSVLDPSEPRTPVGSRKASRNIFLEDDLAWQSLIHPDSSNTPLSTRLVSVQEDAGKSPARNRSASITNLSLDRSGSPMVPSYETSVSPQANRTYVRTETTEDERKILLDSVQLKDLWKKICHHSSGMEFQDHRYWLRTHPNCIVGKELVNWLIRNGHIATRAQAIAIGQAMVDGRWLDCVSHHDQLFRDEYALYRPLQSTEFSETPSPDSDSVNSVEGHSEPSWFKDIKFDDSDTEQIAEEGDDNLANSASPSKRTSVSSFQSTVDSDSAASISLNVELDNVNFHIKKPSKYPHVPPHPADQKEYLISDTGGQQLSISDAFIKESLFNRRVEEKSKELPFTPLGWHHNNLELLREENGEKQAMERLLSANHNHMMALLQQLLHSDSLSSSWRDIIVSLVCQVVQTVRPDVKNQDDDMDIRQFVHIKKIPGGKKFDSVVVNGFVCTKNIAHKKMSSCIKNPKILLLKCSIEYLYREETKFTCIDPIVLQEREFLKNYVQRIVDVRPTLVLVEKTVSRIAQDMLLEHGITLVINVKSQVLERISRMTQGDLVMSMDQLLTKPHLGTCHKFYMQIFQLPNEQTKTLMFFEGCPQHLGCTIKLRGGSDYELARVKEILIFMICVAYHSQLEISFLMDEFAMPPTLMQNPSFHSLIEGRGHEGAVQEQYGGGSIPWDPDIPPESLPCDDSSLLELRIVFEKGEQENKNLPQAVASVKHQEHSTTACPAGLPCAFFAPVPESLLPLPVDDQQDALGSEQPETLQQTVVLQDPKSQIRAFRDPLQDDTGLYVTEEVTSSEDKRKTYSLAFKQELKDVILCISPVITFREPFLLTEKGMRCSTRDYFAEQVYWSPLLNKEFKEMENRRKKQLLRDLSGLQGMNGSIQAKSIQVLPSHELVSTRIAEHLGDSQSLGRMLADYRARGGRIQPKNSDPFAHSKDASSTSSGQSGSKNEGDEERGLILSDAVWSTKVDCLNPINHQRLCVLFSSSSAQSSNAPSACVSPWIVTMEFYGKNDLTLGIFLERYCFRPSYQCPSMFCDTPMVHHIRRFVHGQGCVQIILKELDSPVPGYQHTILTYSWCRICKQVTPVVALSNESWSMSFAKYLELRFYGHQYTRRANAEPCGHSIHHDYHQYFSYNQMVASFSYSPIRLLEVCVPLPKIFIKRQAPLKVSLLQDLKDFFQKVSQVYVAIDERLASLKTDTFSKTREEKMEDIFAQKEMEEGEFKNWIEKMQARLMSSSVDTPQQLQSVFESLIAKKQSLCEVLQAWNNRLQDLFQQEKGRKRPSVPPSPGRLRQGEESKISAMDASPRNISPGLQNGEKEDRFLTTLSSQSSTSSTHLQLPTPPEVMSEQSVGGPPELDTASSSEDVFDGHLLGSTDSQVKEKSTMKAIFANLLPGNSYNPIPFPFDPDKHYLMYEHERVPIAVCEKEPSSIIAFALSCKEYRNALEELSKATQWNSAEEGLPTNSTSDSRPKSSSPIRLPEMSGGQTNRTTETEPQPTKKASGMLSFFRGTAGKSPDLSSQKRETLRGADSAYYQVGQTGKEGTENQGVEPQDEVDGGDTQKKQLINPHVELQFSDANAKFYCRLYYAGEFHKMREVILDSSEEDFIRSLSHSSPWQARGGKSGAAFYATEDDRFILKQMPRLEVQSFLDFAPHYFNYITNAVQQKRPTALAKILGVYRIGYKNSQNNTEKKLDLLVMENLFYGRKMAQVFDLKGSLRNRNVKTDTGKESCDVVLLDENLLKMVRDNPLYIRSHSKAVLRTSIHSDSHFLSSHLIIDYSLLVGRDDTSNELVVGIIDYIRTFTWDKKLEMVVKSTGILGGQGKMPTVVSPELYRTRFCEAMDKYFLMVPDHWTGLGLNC

Row | Compound | Kd [nM]
1 | O=C(Nc1cccnc1)N1Cc2nc(N/N=C/c3cccc(O)c3)nc(N3CCOCC3)c2C1 [Example 6, 2-[(2E)-2-[(3-hydroxyphenyl)methylene]hydrazino]-4-morpholino-N-(3-pyridyl)-5,7-dihydropyrrolo[3,4-d]pyrimidine-6-carboxamide] | 60 to 100
2 | Cc1cccc(/C=N/Nc2cc(N3CCOCC3)n3nc(C(=O)NC4COC4)cc3n2)c1 [Example 41, 7-morpholino-5-[(2E)-2-(m-tolylmethylene)hydrazino]-N-(oxetan-3-yl)pyrazolo[1,5-a]pyrimidine-2-carboxamide] | ≤ 1
3 | Cc1cccc(/C=N/Nc2nc3c(c(N4CCOCC4)n2)CCN(S(=O)(=O)c2c(C)n[nH]c2C)C3)c1 [Example 29, 7-[(3,5-dimethyl-1H-pyrazol-4-yl)sulfonyl]-4-morpholino-N-[(E)-m-tolylmethyleneamino]-6,8-dihydro-5H-pyrido[3,4-d]pyrimidin-2-amine] | 5 to 10
4 | COc1cccc(-c2cc(O)n(-c3nc(N4CCOCC4)c4sc(-c5ccncc5)cc4n3)n2)c1 [Example 34, 5-(3-methoxyphenyl)-2-[4-morpholino-6-(4-pyridyl)thieno[3,2-d]pyrimidin-2-yl]pyrazol-3-ol] | 5 to 10
5 | Cc1cccc(/C=N/Nc2nc3c(c(N4CCOCC4)n2)CN(C(=O)NC2CNC2)C3)c1 [Example 28, N-(azetidin-3-yl)-4-morpholino-2-[(2E)-2-(m-tolylmethylene)hydrazino]-5,7-dihydropyrrolo[3,4-d]pyrimidine-6-carboxamide] | 5 to 10
6 | O=C(Nc1cccnc1)N1Cc2nc(N/N=C/c3cccc(Cl)c3)nc(N3CCOCC3)c2C1 [Example 7, 2-[(2E)-2-[(3-chlorophenyl)methylene]hydrazino]-4-morpholino-N-(3-pyridyl)-5,7-dihydropyrrolo[3,4-d]pyrimidine-6-carboxamide] | 10 to 60
7 | Cc1cccc(/C=N/Nc2nc3c(c(N4CCOCC4)n2)CN(C(=O)NC2CCC2)C3)c1 [Example 5, N-cyclobutyl-4-morpholino-2-[(2E)-2-(m-tolylmethylene)hydrazino]-5,7-dihydropyrrolo[3,4-d]pyrimidine-6-carboxamide] | 1 to 5
8 | Cc1cccc(/C=N/Nc2nc3c(c(N4CCOCC4)n2)CN(C(=O)Nc2cccnc2)C3)c1 [Example 3, 4-Morpholino-2-[(2E)-2-(m-tolylmethylene)hydrazino]-N-(3-pyridyl)-5,7-dihydropyrrolo[3,4-d]pyrimidine-6-carboxamide] | 1 to 5
9 | Cc1cccc(/C=N/Nc2nc3c(c(N4CCOCC4)n2)CN(c2ncccn2)C3)c1 [Example 23, 4-morpholino-N-[(E)-m-tolylmethyleneamino]-6-pyrimidin-2-yl-5,7-dihydropyrrolo[3,4-d]pyrimidin-2-amine] | 1 to 5
10 | Cc1cccc(/C=N/Nc2nc3c(c(N4CCOCC4)n2)CN(S(=O)(=O)c2ccc(C(=O)O)cc2)C3)c1 [Example 17, 4-[[4-morpholino-2-[(2E)-2-(m-tolylmethylene)hydrazino]-5,7-dihydropyrrolo[3,4-d]pyrimidin-6-yl]sulfonyl]benzoic acid] | 1 to 5
11 | Cc1cccc(-c2cc(O)n(-c3nc(N4CCOCC4)c4sc(-c5ccncc5)cc4n3)n2)c1 [Example 33, 2-[4-morpholino-6-(4-pyridyl)thieno[3,2-d]pyrimidin-2-yl]-5-(m-tolyl)pyrazol-3-ol methane sulfonate] | ≤ 1
12 | CCNC(=O)N1Cc2nc(N/N=C/c3cccc(C)c3)nc(N3CCOCC3)c2C1 [Example 1, N-ethyl-4-morpholino-2-[(2E)-2-(m-tolylmethylene)hydrazino]-5,7-dihydropyrrolo[3,4-d]pyrimidine-6-carboxamide] | 5 to 10
13 | Cc1cccc(/C=N/Nc2nc3c(c(N4CCOCC4)n2)CN(S(=O)(=O)c2c(C)n[nH]c2C)C3)c1 [Example 20, 6-[(3,5-dimethyl-1H-pyrazol-4-yl)sulfonyl]-4-morpholino-N-[(E)-m-tolylmethyleneamino]-5,7-dihydropyrrolo[3,4-d]pyrimidin-2-amine] | ≤ 1
14 | Cc1cccc(-c2cc(O)n(-c3nc4c(c(N5CCOCC5)n3)CN(S(=O)(=O)c3c(C)noc3C)C4)n2)c1 [Example 37, 2-[6-(3,5-dimethylisoxazol-4-yl)sulfonyl-4-morpholino-5,7-dihydropyrrolo[3,4-d]pyrimidin-2-yl]-5-(m-tolyl)pyrazol-3-ol] | 100 to 2000
15 | Cc1cccc(/C=N/Nc2cc(N3CCOCC3)n3nc(C(=O)NC4CC(F)(F)C4)cc3n2)c1 [Example 42, N-(3,3-difluorocyclobutyl)-7-morpholino-5-[(2E)-2-(m-tolylmethylene)hydrazino]pyrazolo[1,5-a]pyrimidine-2-carboxamide] | 1 to 5
16 | O=C(Nc1cccnc1)N1Cc2nc(N/N=C/c3cccc(C(F)(F)F)c3)nc(N3CCOCC3)c2C1 [Example 8, 4-morpholino-N-(3-pyridyl)-2-[(2E)-2-[[3-(trifluoromethyl)phenyl]methylene]hydrazino]-5,7-dihydropyrrolo[3,4-d]pyrimidine-6-carboxamide] | 100 to 2000
17 | Cc1cccc(/C=N/Nc2nc3c(c(N4CCOC[C@@H]4C)n2)CN(c2ncccn2)C3)c1 [Example 25, 4-[(3S)-3-methylmorpholin-4-yl]-N-[(E)-m-tolylmethyleneamino]-6-pyrimidin-2-yl-5,7-dihydropyrrolo[3,4-d]pyrimidin-2-amine] | 1 to 5
18 | Cc1cccc(-c2cc(O)n(-c3nc4c(c(N5CCOCC5)n3)CN(C(=O)Nc3cccnc3)C4)n2)c1 [Example 38, 2-[5-hydroxy-3-(m-tolyl)pyrazol-1-yl]-4-morpholino-N-(3-pyridyl)-5,7-dihydropyrrolo[3,4-d]pyrimidine-6-carboxamide methane sulfonate] | 5 to 10
19 | Cc1cccc(/C=N/Nc2nc3c(c(N4CCOCC4)n2)CN(Cc2ccccn2)C3)c1 [Example 11, 4-morpholino-N-[(E)-m-tolylmethyleneamino]-6-(2-pyridylmethyl)-5,7-dihydropyrrolo[3,4-d]pyrimidin-2-amine] | 10 to 60
20 | Cc1cccc(/C=N/Nc2nc3c(c(N4CCOCC4)n2)CN(S(=O)(=O)c2cccc(C(=O)O)c2)C3)c1 [Example 16, 3-[[4-morpholino-2-[(2E)-2-(m-tolylmethylene)hydrazino]-5,7-dihydropyrrolo[3,4-d]pyrimidin-6-yl]sulfonyl]benzoic acid] | 1 to 5
21 | Cc1cccc(/C=N/Nc2nc3c(c(N4CCOCC4)n2)CN(S(=O)(=O)c2cn(C)cn2)C3)c1 [Example 15, 6-(1-methylimidazol-4-yl)sulfonyl-4-morpholino-N-[(E)-m-tolylmethyleneamino]-5,7-dihydropyrrolo[3,4-d]pyrimidin-2-amine] | ≤ 1
22 | Cc1cccc(/C=N/Nc2nc3c(c(N4CCOC[C@H]4C)n2)CN(c2ncccn2)C3)c1 [Example 26, 4-[(3R)-3-methylmorpholin-4-yl]-N-[(E)-m-tolylmethyleneamino]-6-pyrimidin-2-yl-5,7-dihydropyrrolo[3,4-d]pyrimidin-2-amine] | 5 to 10
23 | Cc1cccc(/C=N/Nc2nc3c(c(N4CCOCC4)n2)CN(S(=O)(=O)c2c(C)noc2C)C3)c1 [Example 22, 6-(3,5-dimethylisoxazol-4-yl)sulfonyl-4-morpholino-N-[(E)-m-tolylmethyleneamino]-5,7-dihydropyrrolo[3,4-d]pyrimidin-2-amine] | 1 to 5
24 | Cc1cccc(/C=N/Nc2nc3c(c(N4CCOCC4)n2)CN(Cc2cccnc2)C3)c1 [Example 10, 4-morpholino-N-[(E)-m-tolylmethyleneamino]-6-(3-pyridylmethyl)-5,7-dihydropyrrolo[3,4-d]pyrimidin-2-amine] | 1 to 5
25 | Cc1cccc(/C=N/Nc2nc3c(c(N4CCOCC4)n2)CN(C(=O)NC2CCCC2)C3)c1 [Example 4, N-cyclopentyl-4-morpholino-2-[(2E)-2-(m-tolylmethylene)hydrazino]-5,7-dihydropyrrolo[3,4-d]pyrimidine-6-carboxamide] | 1 to 5
26 | Cc1cccc(/C=N/Nc2nc3c(c(N4CCOCC4)n2)CN(C(=O)Nc2ccc(F)cc2)C3)c1 [Example 2, N-(4-Fluorophenyl)-4-morpholino-2-[(2E)-2-(m-tolylmethylene)hydrazino]-5,7-dihydropyrrolo[3,4-d]pyrimidine-6-carboxamide] | 5 to 10
27 | Cc1cccc(/C=N/Nc2nc3c(c(N4CCOCC4)n2)CN(S(=O)(=O)N(C)C)C3)c1 [Example 21, N,N-dimethyl-4-morpholino-2-[(2E)-2-(m-tolylmethylene)hydrazino]-5,7-dihydropyrrolo[3,4-d]pyrimidine-6-sulfonamide] | 1 to 5
28 | Cc1cccc(/C=N/Nc2nc3c(c(N4CCOCC4)n2)CN(c2ccncn2)C3)c1 [Example 24, 4-morpholino-N-[(E)-m-tolylmethyleneamino]-6-pyrimidin-4-yl-5,7-dihydropyrrolo[3,4-d]pyrimidin-2-amine] | 1 to 5
